Data published in paper PMC5333395, “Assessing histone demethylase inhibitors in cells: lessons learned” (Epigenetics & Chromatin, 2017).

Experiments:
KDM5D = KDM5D (Homo sapiens, UniProt Q9BY66); test: AlphaScreen in vitro demethylase assay; format: biochemical; details: IC50 ± SD (number of replicates)
Procedure: IC50 values were determined as previously described. The following amendments were made to the protocol for carrying out 2-OG competition assays.

KDM4C = molecular target: T1, KDM4C (Homo sapiens, UniProt Q9H3R0); test: High-content immunofluorescence (IF) assay, overexpressed full-length FLAG-tagged KDM in HeLa cells; format: cell-based; details: HeLa cells overexpressing WT KDM4C, H3K9me3 mark, 24 h; read-out: KDM4C, in cells, EC50 by IF assay (head: IC50)
T1 sequence (Q9H3R0 1-1056): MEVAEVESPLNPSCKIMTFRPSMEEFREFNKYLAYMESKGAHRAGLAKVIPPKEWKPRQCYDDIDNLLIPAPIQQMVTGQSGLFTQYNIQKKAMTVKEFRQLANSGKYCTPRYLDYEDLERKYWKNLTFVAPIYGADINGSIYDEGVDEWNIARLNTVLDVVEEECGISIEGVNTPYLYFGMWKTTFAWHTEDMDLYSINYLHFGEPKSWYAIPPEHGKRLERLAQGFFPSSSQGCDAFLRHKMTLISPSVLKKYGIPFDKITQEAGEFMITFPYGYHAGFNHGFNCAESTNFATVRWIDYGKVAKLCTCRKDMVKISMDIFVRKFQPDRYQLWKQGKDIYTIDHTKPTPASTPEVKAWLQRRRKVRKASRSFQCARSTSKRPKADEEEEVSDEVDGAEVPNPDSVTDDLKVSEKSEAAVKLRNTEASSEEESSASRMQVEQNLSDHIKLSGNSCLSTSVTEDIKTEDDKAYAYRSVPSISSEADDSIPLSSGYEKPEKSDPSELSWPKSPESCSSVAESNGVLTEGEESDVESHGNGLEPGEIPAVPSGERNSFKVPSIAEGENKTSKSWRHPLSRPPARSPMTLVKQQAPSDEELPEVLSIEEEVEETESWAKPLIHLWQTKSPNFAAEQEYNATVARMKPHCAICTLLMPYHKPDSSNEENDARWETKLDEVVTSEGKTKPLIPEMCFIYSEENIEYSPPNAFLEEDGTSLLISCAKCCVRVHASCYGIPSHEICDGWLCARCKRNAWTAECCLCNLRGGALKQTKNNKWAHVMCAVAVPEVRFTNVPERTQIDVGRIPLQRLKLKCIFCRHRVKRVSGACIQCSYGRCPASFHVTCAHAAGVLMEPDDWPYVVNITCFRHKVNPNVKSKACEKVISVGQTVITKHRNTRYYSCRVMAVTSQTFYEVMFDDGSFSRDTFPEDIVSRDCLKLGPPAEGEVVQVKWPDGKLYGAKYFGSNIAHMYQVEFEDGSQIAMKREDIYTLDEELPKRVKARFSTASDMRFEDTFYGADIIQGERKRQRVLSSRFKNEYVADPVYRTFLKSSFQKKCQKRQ
Procedure: (§1) HeLa cells (ATCC) were cultured at 37 °C and 5% CO2 in Minimal Essential Media—Eagle (Sigma-Aldrich, UK) supplemented with 10% heat-inactivated foetal calf serum (FCS) (Gibco, UK), and 1% L-glutaMAX (Gibco, UK) in T75 flasks (Sarstedt, UK) and passaged regularly with TrypLE (Life Technologies, UK) before cells reached confluence. On day 0, 7000 cells per well were plated on a 96-well clear bottom CellCarrier plate (PerkinElmer, UK). The next day the cells were transfected with Lipofectamine 3000 (ThermoFisher Scientific, UK) following the manufacturer’s instructions. Briefly, 0.1 µg of plasmid DNA (encoding for the respective demethylase) and 0.15 µL of Lipofectamine 3000 were diluted in separate tubes containing 5 µL OptiMEM. 0.15 µL of P3000 was added to the tube with the DNA. The two solutions were then mixed gently and allowed to incubate for 5 min at room temperature. Next, the DNA-lipid complex was added to the cells for 4 h at 37 °C and 5% CO2.
(§2) Compound dilutions were made in a 96-well PCR plate (Starlab, UK). The culture medium was supplemented with 0.4% DMSO so that the solvent concentration was maintained throughout. Compounds were serially diluted at a 1:2 or 1:3 dilution ratio. Next, the cell culture plate was removed from the incubator and the medium was gently aspirated and replaced with the fresh medium containing diluted compounds.
(§3) Then cells were rinsed once with PBS and blocked for 30 min at room temperature using 3% v/v foetal calf serum diluted in PBS.

KDM4B = molecular target: T2, KDM4B (Homo sapiens, UniProt O94953); test: as above; format: cell-based; details: HeLa cells overexpressing WT KDM4B, H3K9me3 mark, 24 h; read-out: KDM4B, in cells, EC50 by IF assay (head: IC50)
T2 sequence (O94953 1-1096): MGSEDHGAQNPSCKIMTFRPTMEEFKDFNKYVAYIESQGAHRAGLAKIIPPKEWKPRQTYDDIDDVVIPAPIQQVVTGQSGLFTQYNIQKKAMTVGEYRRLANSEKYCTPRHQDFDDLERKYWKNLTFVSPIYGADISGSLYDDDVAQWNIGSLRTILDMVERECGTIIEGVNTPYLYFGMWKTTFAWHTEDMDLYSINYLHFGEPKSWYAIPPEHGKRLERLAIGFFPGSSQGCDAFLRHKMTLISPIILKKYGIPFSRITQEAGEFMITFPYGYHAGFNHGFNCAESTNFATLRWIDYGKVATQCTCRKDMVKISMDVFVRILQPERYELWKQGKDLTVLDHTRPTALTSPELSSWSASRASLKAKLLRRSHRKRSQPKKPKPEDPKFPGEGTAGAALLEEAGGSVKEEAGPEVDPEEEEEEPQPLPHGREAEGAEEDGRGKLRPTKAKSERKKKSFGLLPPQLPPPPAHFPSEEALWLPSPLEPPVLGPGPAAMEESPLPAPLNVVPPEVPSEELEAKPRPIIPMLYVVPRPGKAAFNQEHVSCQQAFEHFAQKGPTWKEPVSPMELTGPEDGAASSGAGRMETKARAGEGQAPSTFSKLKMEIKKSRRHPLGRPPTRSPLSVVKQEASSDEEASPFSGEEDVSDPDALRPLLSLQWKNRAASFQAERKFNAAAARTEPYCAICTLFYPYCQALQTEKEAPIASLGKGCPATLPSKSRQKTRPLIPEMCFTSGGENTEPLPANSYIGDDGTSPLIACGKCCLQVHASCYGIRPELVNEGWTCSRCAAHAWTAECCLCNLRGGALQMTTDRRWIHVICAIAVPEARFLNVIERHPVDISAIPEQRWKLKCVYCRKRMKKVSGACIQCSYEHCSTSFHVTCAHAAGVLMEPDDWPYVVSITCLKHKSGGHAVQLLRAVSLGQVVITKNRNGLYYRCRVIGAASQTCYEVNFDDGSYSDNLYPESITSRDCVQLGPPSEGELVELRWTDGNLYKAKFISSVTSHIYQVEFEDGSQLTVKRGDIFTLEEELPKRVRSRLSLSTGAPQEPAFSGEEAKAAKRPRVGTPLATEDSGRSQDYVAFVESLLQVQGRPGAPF
Procedure: as §1, §2, §3

Sequence of KDM5D (Q9BY66 whole entry): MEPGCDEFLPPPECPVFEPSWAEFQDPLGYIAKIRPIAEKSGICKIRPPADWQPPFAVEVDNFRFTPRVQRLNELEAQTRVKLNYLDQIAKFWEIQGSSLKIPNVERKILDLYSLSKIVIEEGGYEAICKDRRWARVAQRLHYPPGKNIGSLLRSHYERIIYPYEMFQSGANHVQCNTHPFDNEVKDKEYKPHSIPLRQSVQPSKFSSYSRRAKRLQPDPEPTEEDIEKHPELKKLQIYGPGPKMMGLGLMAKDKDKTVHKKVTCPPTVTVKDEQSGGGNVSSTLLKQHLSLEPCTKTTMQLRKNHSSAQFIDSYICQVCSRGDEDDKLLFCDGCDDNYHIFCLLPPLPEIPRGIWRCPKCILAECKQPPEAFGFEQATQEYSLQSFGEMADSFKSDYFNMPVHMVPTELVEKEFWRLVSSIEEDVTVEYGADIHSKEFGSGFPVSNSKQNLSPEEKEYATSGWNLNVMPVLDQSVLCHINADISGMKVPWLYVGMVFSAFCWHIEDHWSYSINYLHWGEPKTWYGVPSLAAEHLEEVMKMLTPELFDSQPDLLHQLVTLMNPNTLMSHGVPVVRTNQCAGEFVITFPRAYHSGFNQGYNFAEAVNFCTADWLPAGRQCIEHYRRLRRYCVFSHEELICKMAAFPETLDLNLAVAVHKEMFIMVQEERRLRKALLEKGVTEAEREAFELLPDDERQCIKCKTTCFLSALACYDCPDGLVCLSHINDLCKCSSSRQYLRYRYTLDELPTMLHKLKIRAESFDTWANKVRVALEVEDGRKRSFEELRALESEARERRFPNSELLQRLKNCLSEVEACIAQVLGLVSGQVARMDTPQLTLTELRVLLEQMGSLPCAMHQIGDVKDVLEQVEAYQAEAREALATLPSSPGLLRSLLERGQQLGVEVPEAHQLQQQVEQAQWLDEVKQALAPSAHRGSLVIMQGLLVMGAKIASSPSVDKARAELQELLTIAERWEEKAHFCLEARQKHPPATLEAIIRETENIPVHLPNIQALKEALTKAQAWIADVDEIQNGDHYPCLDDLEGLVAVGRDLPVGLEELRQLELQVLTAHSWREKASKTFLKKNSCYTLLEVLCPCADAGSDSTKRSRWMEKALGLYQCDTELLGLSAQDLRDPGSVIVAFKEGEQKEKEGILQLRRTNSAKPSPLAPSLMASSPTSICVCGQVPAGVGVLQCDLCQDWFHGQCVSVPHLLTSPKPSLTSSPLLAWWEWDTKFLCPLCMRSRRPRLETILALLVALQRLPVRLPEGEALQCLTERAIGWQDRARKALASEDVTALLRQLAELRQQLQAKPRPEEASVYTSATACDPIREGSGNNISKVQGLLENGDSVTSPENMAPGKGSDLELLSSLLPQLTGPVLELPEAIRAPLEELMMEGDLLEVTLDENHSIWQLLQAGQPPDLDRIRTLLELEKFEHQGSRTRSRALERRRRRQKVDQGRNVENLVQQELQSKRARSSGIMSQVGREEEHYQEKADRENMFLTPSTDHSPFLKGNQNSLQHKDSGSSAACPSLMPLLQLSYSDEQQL

Structure (SMILES)	IC50 (KDM5D) [µM]	EC50 (KDM4C) [µM]	EC50 (KDM4B) [µM]
CCN(CCN(C)C)C(=O)CNCc1cc(C(=O)O)ccn1 [KDOAM-20]	0.019 ± 0.004	–	–
CCN(CCN(C)C)C(=O)CNCc1cncc(C(N)=O)c1 [KDOAM-32]	–	> 100	> 100
CCOC(=O)c1ccnc(CNCC(=O)N(CC)CCN(C)C)c1 [KDOAM-21]	–	17.9	10
